“And” between values parts separate entries of the source, which are not always exact repeats. Equal values may be shown once. Read-outs that look alike come from different tables or passages of the source.
Key:
[1] = biological target: A/Fukui/45/04 H3N2 wild type NA (Influenza A virus, UniProt C0IZY2); assay type: biochemical, influenza virus A/Fukui/45/04 H3N2
[2] = biological target: clade 1 H5N1 virus from Vietnam N1 NA (Influenza A virus, UniProt Q6DPL2); assay type: biochemical, avian influenza H5N1 clade 1 (Vietnam)
[3] = biological target: clade 2 H5N1 virus from Indonesia N1 NA (Influenza A virus, UniProt Q6R2G6); assay type: biochemical, avian influenza H5N1 clade 2 (Indonesia)
[4] = biological target: A/Mississippi/03/01 H1N1 wild type NA (Influenza A virus, UniProt Q289M4); assay type: biochemical, influenza virus A/Mississippi/03/01 H1N1
[5] = biological target: B/Perth/211/01 influenza B wild type NA (Influenza B virus, UniProt Q3S340); assay type: biochemical, influenza B virus B/Perth/211/01
[6] = biological target: H1N1 pandemic influenza virus A/Swine/Shepparton/2009 NA (Influenza A virus, UniProt I6NQT4); assay: biochemical; assay type: biochemical, influenza virus A/Swine/Shepparton/2009 pandemic H1N1
[7] = test system: N2 NA; settings: cited from earlier work
[8] = read-out: IC50 at 10 min, 30' Pre
[9] = read-out: IC50 at 10 min, No pre
[10] = read-out: final IC50 after 60 min, 30' pre
[11] = read-out: final IC50 after 60 min, No pre
[12] = read-out: IC50 on relative slope, Rates time interval 30-40
[13] = read-out: IC50 on relative slope, Rates time interval 40-50
[14] = read-out: IC50 on relative slope, Rates time interval 50-60

In the case of `CC(=O)N[C@H]1[C@H]([C@H](O)[C@H](O)CO)OC(C(=O)O)=C[C@@H]1O` [DANA, 2-deoxy,2,3-dehydro N-acetyl neuraminic acid], the “binding phenotype (slow or fast binding)” value [1] is reported as “fast binding”, the “binding phenotype (slow or fast binding)” value [2] is reported as “fast binding” and the “binding phenotype (slow or fast binding)” value [3] is reported as “fast binding”. For the same compound, the “binding phenotype (slow or fast binding)” value [4] was “fast binding”, the “binding phenotype (slow or fast binding)” value [5] was “fast binding” and the “binding phenotype (slow or fast binding)” value [6] was “fast binding”.

In the case of `CCC(CC)[C@H](NC(C)=O)[C@@H]1[C@H](O)[C@@H](C(=O)O)C[C@H]1N=C(N)N` [Peramivir, peramivir], the “10'/60 (ratio of IC50s), No pre” value [1] is reported as 8.7, the “60'/10 (ratio of IC50s), 30' Pre” value [1] is reported as 1.3 and the “No pre/pre (ratio of 60 min IC50s)” value [1] is reported as 9.0. The IC50 [1, 8] was 1 nM, the IC50 [1, 9] was 103 nM and the IC50 [1, 10] was 1.3 nM. The IC50 [1, 11] was 11.9 nM, the “10'/60 (ratio of IC50s), No pre” value [2] was 6.6 and the “60'/10 (ratio of IC50s), 30' Pre” value [2] was 1.3. The “No pre/pre (ratio of 60 min IC50s)” value [2] was 21.0, the IC50 [2, 8] was 0.2 nM and the IC50 [2, 9] was 40.9 nM. The IC50 [2, 10] was 0.3 nM, the IC50 [2, 11] was 6.2 nM and the “10'/60 (ratio of IC50s), No pre” value [3] was 7.0. The “60'/10 (ratio of IC50s), 30' Pre” value [3] was 1.4, the “No pre/pre (ratio of 60 min IC50s)” value [3] was 9.3 and the IC50 [3, 8] was 0.4 nM. The IC50 [3, 9] was 37.7 nM, the IC50 [3, 10] was 0.6 nM and the IC50 [3, 11] was 5.4 nM. For the same compound, the “10'/60 (ratio of IC50s), No pre” value [4] was 6.5, the “60'/10 (ratio of IC50s), 30' Pre” value [4] was 1.4 and the “No pre/pre (ratio of 60 min IC50s)” value [4] was 8.2. It also gave an IC50 [4, 8] of 0.3 nM, an IC50 [4, 9] of 20.2 nM and an IC50 [4, 10] of 0.4 nM. The IC50 [4, 11] was 3.1 nM, the “10'/60 (ratio of IC50s), No pre” value [5] was 9.3 and the “60'/10 (ratio of IC50s), 30' Pre” value [5] was 1.5. For the same compound, the “No pre/pre (ratio of 60 min IC50s)” value [5] was 9.8, the IC50 [5, 8] was 1.9 nM and the IC50 [5, 9] was 259 nM. The IC50 [5, 10] was 2.8 nM, the IC50 [5, 11] was 27.8 nM and the “10'/60 (ratio of IC50s), No pre” value [6] was 5.1. The “60'/10 (ratio of IC50s), 30' Pre” value [6] was 1.5, the “No pre/pre (ratio of 60 min IC50s)” value [6] was 7.1 and the IC50 [6, 8] was 0.2 nM. It also gave an IC50 [6, 9] of 10.1 nM, an IC50 [6, 10] of 0.3 nM and an IC50 [6, 11] of 2 nM.

In the case of `CC(=O)N[C@H]1[C@H]([C@H](O)[C@H](O)CO)OC(C(=O)O)=C[C@@H]1N=C(N)N` [Zanamivir, zanamivir], the “variation of the apparent Ki depending on the incubation conditions” value [7] is listed as 10,000 fold, the IC50 ([6]; IC50 at 10 min, 30' Pre) is listed as 0.5 nM and the IC50 ([6]; IC50 at 10 min, No pre) is listed as 29.5 nM. The IC50 ([6]; final IC50 after 60 min, 30' pre) was 1.4 nM and the IC50 ([6]; final IC50 after 60 min, No pre) was 5.8 nM.

With oseltamivir carboxylate the “binding phenotype (slow or fast binding)” value [1] was “slow binding phenotype”, the IC50 [1, 8] was 0.5 nM and the IC50 [1, 9] was 30.4 nM. The IC50 [1, 12] was 3.8 nM and 2.5 nM, the IC50 [1, 13] was 3.8 nM and 3.3 nM and the IC50 [1, 14] was 3.4 nM. It also gave an IC50 [1, 10] of 1.7 nM, an IC50 [1, 11] of 5.3 nM and an IC50 [3, 8] of 0.9 nM. It also gave an IC50 [3, 9] of 28.3 nM, an IC50 [3, 10] of 19.6 nM and an IC50 [3, 11] of 21.4 nM. For the same compound, the IC50 [4, 8] was 0.5 nM, the IC50 [4, 9] was 12.2 nM and the IC50 ([4]; read-out: IC50 on relative slope, Rates time interval 20-30) was 6.2 nM and 3.9 nM. The IC50 [4, 12] was 6.7 nM and 4.6 nM, the IC50 [4, 13] was 6.8 nM and 5 nM and the IC50 [4, 14] was 7.9 nM and 5.6 nM. For the same compound, the IC50 [4, 10] was 3.1 nM, the IC50 [4, 11] was 7.3 nM and the IC50 [6, 8] was 0.5 nM. For the same compound, the IC50 [6, 9] was 15.8 nM, the IC50 [6, 10] was 5.1 nM and the IC50 [6, 11] was 6.8 nM.
